The term EC50 denotes the midpoint of the concentration-response curve.

One assay concerns the target T1, human FPRL2 (Homo sapiens, UniProt P25089).
T1 construct: expressed in transfected cells; host or cells: HEK293 (HEK293-hFPRL2-Gα16)
T1 sequence (P25089 1-353): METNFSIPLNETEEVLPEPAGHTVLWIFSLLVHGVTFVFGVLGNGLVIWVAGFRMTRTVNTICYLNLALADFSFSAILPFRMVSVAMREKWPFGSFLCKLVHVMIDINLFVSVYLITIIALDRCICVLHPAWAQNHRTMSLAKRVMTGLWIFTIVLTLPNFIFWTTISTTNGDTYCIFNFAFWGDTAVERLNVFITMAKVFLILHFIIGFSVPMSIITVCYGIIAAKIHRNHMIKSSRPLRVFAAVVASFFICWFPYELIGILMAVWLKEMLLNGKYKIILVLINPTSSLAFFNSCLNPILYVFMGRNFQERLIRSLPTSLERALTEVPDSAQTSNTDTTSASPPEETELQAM
Description: Intracellular calcium measurements (FLIPR), agonistic activity in HEK293-hFPRL2-Gα16 cells. It is filed as cell-based. Conditions: Fluo-4 calcium FLIPR, normalized to GLY14-Humanin 100 nM. In short, it runs like this: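 Peak values after baseline subtraction are expressed relative to 100 nM Gly14-Humanin; compounds diluted in assay buffer from 10 mM DMSO stocks.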

Another assay concerns the target T2, human ALX receptor (Homo sapiens, UniProt P25090).
T2 construct: expressed in transfected cells; host or cells: HEK293 (HEK293-hALXR-Gα16)
T2 sequence (P25090 1-351): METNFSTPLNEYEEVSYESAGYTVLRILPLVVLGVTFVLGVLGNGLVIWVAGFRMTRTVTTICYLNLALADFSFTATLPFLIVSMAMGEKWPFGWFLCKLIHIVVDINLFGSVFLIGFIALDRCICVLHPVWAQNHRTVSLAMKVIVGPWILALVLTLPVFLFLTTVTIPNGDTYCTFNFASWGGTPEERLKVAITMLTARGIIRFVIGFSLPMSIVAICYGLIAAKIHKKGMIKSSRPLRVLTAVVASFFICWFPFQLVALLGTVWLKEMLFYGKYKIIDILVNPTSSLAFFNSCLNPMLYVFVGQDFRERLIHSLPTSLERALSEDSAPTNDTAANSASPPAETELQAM
Description: Intracellular calcium measurements (FLIPR), agonistic activity in HEK293-hALXR-Gα16 cells. The class given is cell-based. Conditions: Fluo-4 calcium FLIPR, normalized to WKYMVm 10 nM. The essentials: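 HEK293 cells expressing hALXR and Gα16 were loaded with 1 μM Fluo-4 AM and 20 mM HEPES for 60 min at 37°C, then exposed to serially diluted compound. FLIPR fluorescence was read at ex 488/em 540 nm. Baseline-subtracted peak responses were normalized to 10 nM WKYMVm.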

Turning to `O=C(Cc1ccccc1Cl)NC[C@H]1[C@H](C(=O)Nc2ccc(Br)cc2)[C@@H]2C=C[C@H]1C21CC1` (racemic) [Example 162, (5R*)—N^5-(4-Bromo-phenyl)-(6R*)-6-[(2-(2-chloro-phenyl)-acetylamino)-methyl]-(4S*,7R*)-[4,7-ethenylene-spiro[2.4]heptane]-5-carboxamide], the EC50 at human FPRL2 was 1730 nM; at human ALX receptor it was 61 nM.

Regarding `COCCC(=O)NC[C@H]1[C@H](C(=O)Nc2ccc(Br)cc2)[C@@H]2C=C[C@H]1C21CC1` (racemic) [Example 163, (5R*)—N^5-(4-Bromo-phenyl)-(6R*)-6-[(3-methoxy-propionylamino)-methyl]-(4S*,7R*)-[4,7-ethenylene-spiro[2.4]heptane]-5-carboxamide], the figures for the EC50 at human FPRL2 and on human ALX receptor were 5680 nM and 72 nM, respectively.

For the compound `CN(C)C(=O)CCC(=O)NC[C@H]1[C@H](C(=O)Nc2ccc(Br)cc2)[C@@H]2C=C[C@H]1C21CC1` (racemic) [Example 164, (5R*)—N^5-(4-Bromo-phenyl)-(6R*)-6-[(3-(N,N-dimethyl-aminocarbonyl)-propionyl-amino)-methyl]-(4S*,7R*)-[4,7-ethenylene-spiro[2.4]heptane]-5-carboxamide], the EC50 at human FPRL2 stood at 6820 nM; on human ALX receptor, 80 nM.

For `COC(=O)CCCC(=O)NC[C@H]1[C@H](C(=O)Nc2ccc(Br)cc2)[C@@H]2C=C[C@H]1C21CC1` (racemic) [Example 166, (5R*)—N^5-(4-Bromo-phenyl)-(6R*)-6-{[(4-methoxycarbonyl-butanoyl)-amino]-methyl}-(4S*,7R*)-[4,7-ethenylene-spiro[2.4]heptane]-5-carboxamide], the EC50 on human FPRL2 was found to be 4710 nM; on human ALX receptor, 88 nM.

Regarding `CCCCC(=O)NC[C@H]1[C@H](C(=O)Nc2ccc(Br)cc2)[C@@H]2C=C[C@H]1C21CC1` (racemic) [Example 167, (5R*)—N^5-(4-Bromo-phenyl)-(6R*)-6-(pentanoylamino-methyl)-(4S*,7R*)-[4,7-ethenylene-spiro[2.4]heptane]-5-carboxamide], the values for the EC50 at human FPRL2 and on human ALX receptor were 3690 nM and 103 nM, respectively.

With `Cc1nc(CC(=O)NC[C@H]2[C@H](C(=O)Nc3ccc(Br)cc3)[C@@H]3C=C[C@H]2C32CC2)c(C)s1` (racemic) [Example 168, (5R*)—N^5-(4-Bromo-phenyl)-(6R*)-6-[(2-(2,5-dimethyl-thiazol-4-yl)-acetylamino)-methyl]-(4S*,7R*)-[4,7-ethenylene-spiro[2.4]heptane]-5-carboxamide], the EC50 on human FPRL2 amounted to 862 nM; at human ALX receptor, 71 nM.

With `O=C(NC[C@H]1[C@H](C(=O)Nc2ccc(Br)cc2)[C@@H]2C=C[C@H]1C21CC1)c1ccnn1-c1ccccc1` (racemic) [Example 169, (5R*)—N^5-(4-Bromo-phenyl)-(6R*)-6-{[(1-phenyl-1H-pyrazole-5-carbonyl)-amino]-methyl}-(4S*,7R*)-[4,7-ethenylene-spiro[2.4]heptane]-5-carboxamide], the EC50 on human FPRL2 was 1790 nM; on human ALX receptor it was 112 nM.

On to `NC(=O)CCC(=O)NC[C@H]1[C@H](C(=O)Nc2ccc(Br)cc2)[C@@H]2C=C[C@H]1C21CC1` (racemic) [Example 170, (5R*)—N^5-(4-Bromo-phenyl)-(6R*)-6-{[(3-aminocarbonyl-propionyl)-amino]-methyl}-(4S*,7R*)-[4,7-ethenylene-spiro[2.4]heptane]-5-carboxamide], for which the EC50 at human FPRL2 was greater than 25000 nM; on human ALX receptor, 114 nM.

For `Cc1ccncc1C(=O)NC[C@H]1[C@H](C(=O)Nc2ccc(Br)cc2)[C@@H]2C=C[C@H]1C21CC1` (racemic) [Example 171, (5R*)—N^5-(4-Bromo-phenyl)-(6R*)-6-{[(4-methyl-pyridine-3-carbonyl)-amino]-methyl}-(4S*,7R*)-[4,7-ethenylene-spiro[2.4]heptane]-5-carboxamide], the results for the EC50 on human FPRL2 and at human ALX receptor were 3220 nM and 118 nM, respectively.

The values are drawn from patent US8563714B2, “Bridged spiro [2.4] heptane derivatives as ALX receptor and/or FPRL2 agonists” (Actelion Pharmaceuticals Ltd., priority 2009, dated 2013).
